We go through 32 compounds from ChEMBL document CHEMBL3045219, “Molecular modeling studies, synthesis and biological evaluation of derivatives of N-phenylbenzamide as Plasmodium falciparum dihydroorotate dehydrogenase (PfDHODH) inhibitors” (Med Chem Res, 2011).

The target of one assay is T1, Dihydroorotate dehydrogenase (Plasmodium falciparum, UniProt Q54A96).
T1 sequence (Q54A96 whole entry): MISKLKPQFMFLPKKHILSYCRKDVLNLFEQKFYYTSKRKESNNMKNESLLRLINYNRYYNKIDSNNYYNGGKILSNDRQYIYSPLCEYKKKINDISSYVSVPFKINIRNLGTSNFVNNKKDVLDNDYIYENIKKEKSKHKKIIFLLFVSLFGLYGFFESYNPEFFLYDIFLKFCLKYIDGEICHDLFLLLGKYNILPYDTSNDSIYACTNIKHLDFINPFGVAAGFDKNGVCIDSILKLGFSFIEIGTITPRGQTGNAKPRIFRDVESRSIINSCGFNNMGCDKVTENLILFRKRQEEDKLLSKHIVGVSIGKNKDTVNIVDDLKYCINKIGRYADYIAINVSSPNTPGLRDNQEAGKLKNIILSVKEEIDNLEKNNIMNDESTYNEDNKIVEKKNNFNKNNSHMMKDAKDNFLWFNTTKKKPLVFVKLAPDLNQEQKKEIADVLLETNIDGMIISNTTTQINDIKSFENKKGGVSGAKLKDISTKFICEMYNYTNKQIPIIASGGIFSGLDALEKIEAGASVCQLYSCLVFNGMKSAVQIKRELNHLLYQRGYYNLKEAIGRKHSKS
In words: Inhibition of Plasmodium falciparum HIs6-tagged DHODH expressed in Escherichia coli DH5alpha using L-dihydroorotate as substrate by DCIP-based spectrophotometric analysis.
As a reminder, the IC50 is the midpoint of a concentration-inhibition curve. On to `O=C(Nc1ccccc1C(F)(F)F)Nc1cccc2ccccc12`, for which the IC50 was 0.2 µM. Same read-out and setting: in the case of `Cc1ccc(NC(=O)/C(C#N)=C(\O)C2CC2)cc1` it was 871 µM; in that of `N#C/C(C(=O)Nc1ccc(C#N)cc1)=C(/O)C1CC1`, 708 µM; in that of `N#C/C(C(=O)Nc1ccc(C(F)(F)F)cc1)=C(/O)C1CC1`, 1070 µM. Still for that read-out and setting: in the case of `Cc1c(C(=O)Nc2cc(Cl)cc(Cl)c2)cccc1[N+](=O)[O-]` it was 0.151 µM; in that of `O=C(Nc1ccc(Cl)cc1Cl)c1ccc2ccccc2c1`, 0.1 µM; in that of `Cc1ccc(NC(=O)c2ccc3ccccc3c2)c(Cl)c1`, 0.151 µM. On the same count and under the same terms, under `O=C(Nc1ccccc1F)c1ccc2ccccc2c1` stands 0.251 µM. Compound `Cc1c(C(=O)Nc2cccc(Br)c2)cccc1[N+](=O)[O-]` showed an IC50 of 0.1 µM. On the same count and under the same terms, under `Cc1c(C(=O)Nc2ccc(F)c(F)c2)cccc1[N+](=O)[O-]` stands 0.151 µM; under `Cc1c(C(=O)Nc2cccc3ccccc23)cccc1[N+](=O)[O-]`, 0.1 µM. Take `Cc1c(C(=O)Nc2ccc(Cl)c(Cl)c2)cccc1[N+](=O)[O-]`: the midpoint of inhibition, the IC50, lay at 0.251 µM. On the same count and under the same terms, in the case of `Cc1cccc(NC(=O)c2cccc([N+](=O)[O-])c2C)c1` it was 0.302 µM; in that of `COc1ccccc1NC(=O)Nc1cccc2ccccc12`, 0.251 µM.

In turn, `O=C(Nc1ccc(Cl)cc1)Nc1cccc2cccnc12` showed an IC50 of 0.55 µM. The same measure, in the same setting: in the case of `N#C/C(C(=O)Nc1ccc([N+](=O)[O-])cc1)=C(/O)C1CC1` it was 537 µM.

A further assay relates to Plasmodium falciparum. Nature of the assay: Antiplasmodial activity against Plasmodium falciparum assessed as inhibition of [3H]hypoxanthine incorporation. Type of assay: functional, organism-based.
For `O=C(Nc1ccc(F)c(Cl)c1)c1ccccc1`, the IC50 came out at 5.7 µM. With `Cc1ccc(NC(=O)c2ccccc2)cc1`, the IC50 is above 10 µM. `O=C(Nc1ccc([N+](=O)[O-])cc1)c1ccccc1`: the IC50 is above 10 µM. Regarding `O=C(Nc1ccccc1Cl)c1ccccc1`, the IC50 is above 10 µM. Same read-out and setting: in the case of `O=C(Nc1cccc([N+](=O)[O-])c1)c1ccccc1` it was above 10 µM; in that of `O=C(Nc1cccc(Cl)c1)c1ccccc1`, 8.7 µM. For `O=C(Nc1ccccc1[N+](=O)[O-])c1ccccc1`, the IC50 was above 10 µM. Still for that read-out and setting: under `O=C(Nc1ccc(Cl)cc1)c1ccccc1` stands above 10 µM. Same read-out and setting: in the case of `O=C(Nc1cccc(Cl)c1Cl)c1ccccc1` it was above 10 µM; in that of `O=C(Nc1ccc(Cl)cc1Cl)c1ccccc1`, above 10 µM.

As for `Cc1cccc(NC(=O)c2ccccc2)c1`, the concentration for half-maximal inhibition (IC50) was above 10 µM. `COc1ccc(NC(=O)c2ccccc2)cc1Cl`: the 50% inhibitory concentration (IC50) is above 10 µM.

As to `O=C(Nc1ccc(Br)cc1)c1ccccc1`, the IC50 is above 10 µM. Still for that read-out and setting: in the case of `C[C@H]1[C@H](OC(=O)CCC(=O)O)O[C@@H]2O[C@@]3(C)CC[C@H]4[C@H](C)CC[C@@H]1[C@@]24OO3` [ARTESUNATE] it was 0.017 µM. On the same count and under the same terms, under `Cc1ccccc1NC(=O)c1ccccc1` [N-O-TOLYLBENZAMIDE] stands above 10 µM; under `O=C(Nc1ccccc1)c1ccccc1` [N-PHENYLBENZAMIDE], above 10 µM.
